For orientation: Ki means the dissociation constant of the complex between target and ligand, obtained from inhibition or displacement.

This is an account of results in US8932842B2, “Aminopyridine dimer compounds, compositions and related methods for neuronal nitric oxide synthase inhibition” (Northwestern University, priority 2009, dated 2015).

One series concerns the target T1, rat nNOS (Rattus norvegicus, UniProt P29476).
T1 construct: made in house; host or cells: E. coli
Briefly: NOS enzyme assay (hemoglobin capture), nNOS. In kind it is biochemical. Particulars: for Ki: rat nNOS; for n/e: ratio of Ki (eNOS) to Ki (nNOS); for n/e / n/i: Tables 1-3; for n/i: ratio of Ki (iNOS) to Ki (nNOS); for activity/potency for nNOS in words: purified enzyme assay.

A further series concerns the target T2, bovine eNOS (Bos taurus, UniProt P29473).
T2 construct: made in house; host or cells: E. coli
The series can be described thus: NOS enzyme assay (hemoglobin capture), eNOS. Format: biochemical.

For a further series, the target named is T3, murine macrophage iNOS (Mus musculus, UniProt P29477).
T3 construct: made in house; host or cells: E. coli
The series can be described thus: NOS enzyme assay (hemoglobin capture), iNOS. Format: biochemical.

The target in series [1] is T4, nNOS in 293T cells overexpressing nNOS (293T/nNOS cells) (Rattus norvegicus, UniProt P29476).
T4 construct: expressed in transfected cells; host or cells: 293T cells (293T/nNOS)
The series can be described thus: Cell-based assay: inhibition of nNOS in 293T/nNOS cells, nitrite by Griess reagent. Particulars: for activity in the cell-based assay in words: 293T/nNOS cells, FIG. 4; for membrane penetration ability / bioavailability based on cell-based assay: inferred from 293T/nNOS cell-based assay. For orientation: The Griess reaction detects nitrite, a stable product of nitric oxide.
Excerpt: After eight hours, the amount of nitrite in culture media was quantified with the Griess reagent. Each data point is an average of two independent experiments.

The mark [2] stands for this setting: Table 4, read-out: Ki (μM) nNOS.
[3] abbreviates: Table 4, read-out: Ki (μM) eNOS.
[4] abbreviates: Table 4, read-out: Ki (μM) iNOS.
The mark [5] stands for this setting: Ki calculated from directly measured IC50 values, read-out: Ki nNOS.
Where [6] appears, read: Ki calculated from directly measured IC50 values, read-out: Ki eNOS.
[7] abbreviates: Ki calculated from directly measured IC50 values, read-out: Ki iNOS.

“Also recorded” adds a separate entry of the source. Like-named read-outs stand apart in the source and are kept apart here.

Description for bovine eNOS: (§1) As above, the activities of the target compounds of Schemes 8-9 were determined against three NOS isozymes: rat nNOS, bovine eNOS and marine iNOS using known literature methods.
(§2) Enzyme Assays. […] The four enzyme isoforms were recombinant enzymes overexpressed (in E. coli) and isolated as reported. […] The formation of nitric oxide was measured using a well-known hemoglobin capture assay, as described previously in the literature. […] Ki=IC50/(1+[S]/Km) (1)
Description for murine macrophage iNOS: as §1, §2
Description for rat nNOS: as §1, §2

`Cc1cc(N)nc(CCc2ccc(CCCN)c(CCc3cc(C)cc(N)n3)c2)c1` [HH032]: the Selectivity n/e at rat nNOS (Table 4) turned out to be 303. This compound had a Selectivity n/i at rat nNOS (Table 4) of 199. The values for the Ki on rat nNOS (setting [2]), on bovine eNOS (setting [3]) and on murine macrophage iNOS (setting [4]) were 0.11 µM, 33.4 µM and 21.9 µM, respectively.
Turning to `Cc1cc(N)nc(CCc2ccc(CCc3cc(C)cc(N)n3)cc2)c1` [3e], at rat nNOS, the “selectivity for nNOS over eNOS” value was determined as 25 fold. Further, the Ki was 0.097 µM on rat nNOS (setting [5]), 2.39 µM on bovine eNOS (setting [6]) and 2.41 µM at murine macrophage iNOS (setting [7]). Further, the n/e at rat nNOS is listed as 24.6. Further, the n/i at rat nNOS stood at 24.8.
With `Cc1cc(N)nc(CCc2ccc(CCc3cc(C)nc(N)c3)cc2)c1` [3f, 4-(4-(2-(6-Amino-4-methylpyridin-2-yl)ethyl)phenethyl)-6-methylpyridin-2-amine], at rat nNOS, the “activity/potency for nNOS in words” value is “inactive”. Besides, at rat nNOS (setting [5]), the Ki is 0.167 µM.
For the compound `Cc1cc(N)nc(CCc2cc(CCc3cc(C)cc(N)n3)cc(N3CCN(C)CC3)c2)c1` [HH027], at rat nNOS (Table 4), the Selectivity n/e came to 17. For the same compound, the Selectivity n/i at rat nNOS (Table 4) is reported as 24. Further, the values for the Ki on rat nNOS (setting [2]), on bovine eNOS (setting [3]) and at murine macrophage iNOS (setting [4]) were 5.75 µM, 97.4 µM and 138 µM, respectively.
In turn, `Cc1cc(N)nc(CCc2cc(C#N)cc(CCc3cc(C)cc(N)n3)c2)c1` [HH006, 3,5-bis(2-(6-amino-4-methylpyridin-2-yl)ethyl)benzonitrile] had a Selectivity n/e on rat nNOS (Table 4) of 472. The same compound displayed a Selectivity n/i at rat nNOS (Table 4) of 239. For the same compound, at rat nNOS, the “activity/potency for nNOS in words” value was “good potency and selectivity”. Moreover, the Ki is 0.056 µM at rat nNOS (setting [2]), 26.4 µM on bovine eNOS (setting [3]) and 13.4 µM on murine macrophage iNOS (setting [4]).
For the compound `Cc1cc(N)nc(CCc2cccc(CCc3cc(C)nc(N)c3)c2)c1` [3h, 4-(3-(2-(6-Amino-4-methylpyridin-2-yl)ethyl)phenethyl)-6-methylpyridin-2-amine], on rat nNOS, the “selectivity for nNOS over eNOS” value was determined as 111 fold, the “selectivity for nNOS over iNOS” value turned out to be 71.8 fold, the “activity/potency for nNOS in words” value is given as “highly potent” and the n/e is given as 111. In addition, on rat nNOS, the n/i was 71.8. For the same compound, the Ki at rat nNOS (setting [5]) was 0.038 µM. Also, on bovine eNOS (setting [6]), the Ki is 4.2 µM. For the same compound, the Ki at murine macrophage iNOS (setting [7]) was 2.73 µM. Moreover, the “activity in the cell-based assay in words” value in series [1] is recorded as “almost no activity”.
As to `Cc1cc(CCc2cccc(CCc3cc(C)nc(N)c3)c2)cc(N)n1` [3i, 4,4′-(2,2′-(1,3-Phenylene)bis(ethane-2,1-diyl))bis(6-methylpyridin-2-amine)], the “activity/potency for nNOS in words” value on rat nNOS was “poor activity”. Further, on rat nNOS (setting [5]), the Ki was 2.25 µM.
As to `Cc1cc(N)nc(CCc2ccc3cc(CCc4cc(C)cc(N)n4)ccc3c2)c1` [3b, 6,6′-(2,2′-(Naphthalene-2,6-diyl)bis(ethane-2,1-diyl))bis(4-methylpyridin-2-amine)], on rat nNOS, the “selectivity for nNOS over eNOS” value came out at 7 fold, the “selectivity for nNOS over iNOS” value was 9 fold, the n/e was found to be 7.22 and the n/i turned out to be 9.42. Also, the inhibition constant (Ki) at rat nNOS (setting [5]) is 0.241 µM. On bovine eNOS (setting [6]), the Ki is 1.74 µM. The Ki at murine macrophage iNOS (setting [7]) is 2.27 µM.
Take `Cc1cc(C)nc(NCc2ccc3cc(CNc4cc(C)cc(C)n4)ccc3c2)c1` [3a, N,N′-(Naphthalene-2,6-diylbis(methylene))bis(4,6-dimethylpyridin-2-amine)]: on rat nNOS, the “activity/potency for nNOS in words” value is reported as “poor activity”. Besides, on rat nNOS (setting [5]), the Ki is more than 11.5 µM.
At rat nNOS (Table 4), `Cc1cc(N)nc(CCc2cc(CCc3cc(C)cc(N)n3)cc(N3CCNCC3)c2)c1` [HH025] displayed a Selectivity n/e of 30. In addition, the Selectivity n/i on rat nNOS (Table 4) is reported as 17. For the same compound, the Ki worked out at 2.1 µM at rat nNOS (setting [2]), 63.2 µM at bovine eNOS (setting [3]) and 36.7 µM at murine macrophage iNOS (setting [4]).
In the case of `Cc1cc(N)nc(CCc2ccc3ccc(CCc4cc(C)nc(N)c4)cc3c2)c1` [3d, 4-(2-(7-(2-(6-Amino-4-methylpyridin-2-yl)ethyl)naphthalen-2-yl)ethyl)-6-methylpyridin-2-amine], the “activity/potency for nNOS in words” value at rat nNOS is “little activity”. Also, on rat nNOS (setting [5]), the inhibitory constant (Ki) is more than 0.5 µM.
As to `Cc1cc(N)nc(CCc2cc(CCCN)cc(CCc3cc(C)cc(N)n3)c2)c1` [HH026], the Selectivity n/e on rat nNOS (Table 4) is reported as 22. The compound also returned a Selectivity n/i at rat nNOS (Table 4) of 60. For the same compound, the inhibition constant (Ki) at rat nNOS (setting [2]) is 0.54 µM; on bovine eNOS (setting [3]), 12.1 µM; on murine macrophage iNOS (setting [4]) it was 32.5 µM.
For `Cc1cc(N)nc(CCc2cccc(CCc3cc(C)cc(N)n3)c2)c1` [3g, 6,6′-(2,2′-(1,3-Phenylene)bis(ethane-2,1-diyl))bis(4-methylpyridin-2-amine)], the “activity in the cell-based assay in words” value in series [1] is “almost no activity”.
Regarding `Cc1cc(N)nc(CCc2ccc3ccc(CCc4cc(C)cc(N)n4)cc3c2)c1` [3c, 6,6′-(2,2′-(Naphthalene-2,7-diyl)bis(ethane-2,1-diyl))bis(4-methylpyridin-2-amine)], the values for the Ki on rat nNOS (setting [5]), on bovine eNOS (setting [6]) and on murine macrophage iNOS (setting [7]) were 0.102 µM, 1.52 µM and 2.05 µM, respectively. In addition, the n/e at rat nNOS came out at 14.9. On rat nNOS, the n/i is 20.1.
As to `Cc1cc(N)nc(CCc2cncc(CCc3cc(C)nc(N)c3)c2)c1` [3k, 4-(2-(5-(2-(6-Amino-4-methylpyridin-2-yl)ethyl)pyridin-3-yl)ethyl)-6-methylpyridin-2-amine], on rat nNOS, the “selectivity for nNOS over eNOS” value stood at 156 fold, the “activity/potency for nNOS in words” value is “highly potent”, the n/e was 156 and the n/i is on record as 19. Also, the Ki at rat nNOS (setting [5]) is 0.103 µM. Moreover, the inhibition constant (Ki) at bovine eNOS (setting [6]) is 16.1 µM. Moreover, the Ki on murine macrophage iNOS (setting [7]) is 1.91 µM. In addition, in series [1], the “membrane penetration ability / bioavailability based on cell-based assay” value is given as “very good membrane penetration ability”.
On to `Cc1cc(N)nc(CCc2cc(CN)cc(CCc3cc(C)cc(N)n3)c2)c1` [HH030, 6,6′-((5-(aminomethyl)-1,3-phenylene)bis(ethane-2,1-diyl))bis(4-methylpyridin-2-amine)], for which, at rat nNOS (Table 4), the Selectivity n/e was 221. In addition, the Selectivity n/i at rat nNOS (Table 4) is given as 119. Besides, the values for the inhibitory constant (Ki) at rat nNOS (setting [2]), on bovine eNOS (setting [3]) and on murine macrophage iNOS (setting [4]) were 0.053 µM, 11.7 µM and 6.31 µM, respectively.
Turning to `Cc1cc(N)nc(CCc2cncc(CCc3cc(C)cc(N)n3)c2)c1` [3j, 6,6′-(2,2′-(Pyridine-3,5-diyl)bis(ethane-2,1-diyl))bis(4-methylpyridin-2-amine)], the “membrane penetration ability / bioavailability based on cell-based assay” value in series [1] is given as “very good membrane penetration ability; also recorded: improved bioavailability”.
